Records with an inconclusive call do not appear. The source made the active and inactive calls. No rule for the calls is given here.

In this experiment the test system is Mycobacterium tuberculosis non-replicating, growth inhibition. Kind of experiment: growth inhibition of non-replicating M. tuberculosis (AID 488890).
`COc1cccc(OCC(=O)NNC(=O)C(=O)Nc2cccc(C)c2)c1`: the IC50 – broadly, the concentration needed to halve the response being measured – was 6.72 µM.

For the molecule `Cc1cc(C(=O)NNc2ccc(Cl)cc2)no1`, the IC50 is 1.61 µM.

As for `Cc1cc(C)c2c(=O)n(CC(=O)Nc3cccc(Cl)c3C)sc2n1`, the IC50 was 7.18 µM.

Consider `O=c1oc2ccccc2nc1/C=C(\O)c1ccc(Br)cc1`, for which the half-maximal inhibitory concentration (IC50) was 6.03 µM.

Regarding `O=C(Nc1nnc(-c2ccc(Cl)cc2)o1)c1ccccc1Br`, the IC50 is 0.58 µM.

`CCOC(=O)CNC(=O)CNC(=O)c1nn(-c2ccc(OC)c(Cl)c2)c(=O)c2ccccc12`: the IC50 is 29.1 µM (inactive).

Consider `CC(C)c1ccc(N2C(=O)CC(Sc3ncn[nH]3)C2=O)cc1` (centres undefined), for which the IC50 is 11.2 µM (inactive).

For `CCOC(=O)COc1ccc2c(c1)C(=O)CC(C)(c1cccnc1)O2` (centres undefined), the IC50 was 10.2 µM (inactive).

Consider `CCN(CC)C(=O)c1sc2nc(-c3ccccc3)ccc2c1N`, for which the IC50 was 14.7 µM (inactive).

As to `NC(=O)COC(=O)c1sc2ccccc2c1Cl`, the IC50 is 8.25 µM.

Take `CN(C)c1ccc(/C=C2\N=C(C(C)(C)C)OC2=O)cc1`: the IC50 was 9.11 µM.

In the case of `COc1ccc(C(=O)Oc2c(CN3CCOCC3)cc(Cl)c3cccnc23)cc1OC`, the IC50 was 15.3 µM (inactive).

Take `Cc1cccc(OC(=O)c2sc3ncn(C)c(=O)c3c2C)c1`: the IC50 is 4.61 µM.

Turning to `CCn1cc(/C=N\NC(=O)c2ccc(F)cc2)cn1`, the IC50 was 24.3 µM (inactive).

For `CN1c2ccsc2/C(=N/Nc2ccccc2)CS1(=O)=O`, the IC50 was 0.29 µM.

Take `O=C(COc1ccc2ccccc2c1)NNC(=O)c1cccs1`: the IC50 was 4.52 µM.

Take `CN(C)CC/C=C1\c2ccccc2Sc2cc(F)c(Cl)cc21`: the IC50 is 10.5 µM (inactive).

Turning to `Cc1ccccc1OCCC(=O)OCC(=O)NNC(=O)c1cccs1`, the IC50 is 21.4 µM (inactive).

As to `O=C(CCSc1nnc(-c2ccncc2)o1)Nc1ccc(Cl)cc1`, the IC50 was 14.7 µM (inactive).

With `CC1(C)CC(=O)C2=C(C1)OC(N)=C([N+](=O)[O-])C2c1ccc(C#N)s1` (centres undefined), the IC50 was 11.1 µM (inactive).

`CCOc1cc(-c2nnc(NC(=O)c3ccco3)o2)cc(OCC)c1OCC`: the IC50 was 21.6 µM (inactive).

In the case of `Nc1scc(-c2ccncc2)c1Cl`, the IC50 is 14 µM (inactive).

As to `CCOC(=O)CN(C#N)c1nc(N(C)C)nc(N(C)C)n1`, the IC50 was 8.42 µM.

Regarding `CCCOC(=O)c1ccc(-c2ccc(C=O)o2)cc1`, the IC50 was 1.27 µM.

For `O=C(N/N=C/C=C/c1ccccc1)c1ccccn1`, the IC50 is 7.93 µM.

In the case of `O=C(Nc1nnc(-c2ccccc2Cl)o1)c1ccc(S(=O)(=O)N2CCCCCC2)cc1`, the IC50 was 8.7 µM.

As to `COc1cc(C(=O)ON=C2C=C(C)C(=O)C(C)=C2)cc(OC)c1OC`, the IC50 is 48.6 µM (inactive).

`O=C(CN1CCN(c2ccc([N+](=O)[O-])cc2)CC1)Nc1ccccn1`: the IC50 was 30.8 µM (inactive).

Regarding `Cc1ccc(-c2nnc(COC(=O)c3cccs3)o2)cc1`, the IC50 was 13.8 µM (inactive).

As for `O=C1NC2(CCC3(CC2)OCCO3)NN1c1ccc(Cl)cc1`, the IC50 is 0.84 µM.

Consider `Clc1ccc(OCCCCN2CCc3ccccc3C2)cc1`, for which the IC50 is 9.36 µM.

Take `O=C(COc1ccccc1)NCCSCc1ccc(Cl)cc1`: the IC50 is 16.4 µM (inactive).

As for `Cc1ccc(NC(=O)CO/N=C/c2ccc(N(C)C)cc2)cc1`, the IC50 was 7.84 µM.

Take `O=S1(=O)C=C(Sc2nc3cc(Cl)ccc3o2)c2ccccc21`: the IC50 was 0.3 µM.

Consider `Cc1ccc2oc(=O)c3cc(C(=O)NCCCN4CCCCCC4)sc3c2c1`, for which the IC50 was 15.8 µM (inactive).

`COc1cc(CNCCc2ccccc2)cc(Cl)c1OCc1ccccc1`: the IC50 is 7.43 µM.

As to `CC(C)N1CCc2c(sc(NC(=O)CCS(=O)(=O)c3ccccc3)c2C#N)C1`, the IC50 was 39.6 µM (inactive).

Consider `CC(=O)N1CCN(C(=O)CC2OC(=O)c3ccccc32)CC1` (centres undefined), for which the IC50 is 18.9 µM (inactive).

As for `COC(=O)c1sc(NC(=O)c2ccc([N+](=O)[O-])o2)c(C#N)c1C`, the IC50 was 4.3 µM.

As to `CCc1ccc(C(=O)COC(=O)c2ccc(Cl)nc2)cc1`, the IC50 was 17.3 µM (inactive).

As for `Cc1cccc2nc(-c3cccnc3)c(NCCC(C)C)n12`, the IC50 was 16.1 µM (inactive).

With `CCCOc1ccc(C(=O)NNC(=S)NC(=O)c2ccco2)cc1`, the IC50 was 3.83 µM.

As to `Cc1cc(C)c2nc(/N=C(\N)NC(=O)Nc3ccccc3)nc(C)c2c1`, the IC50 is 13.3 µM (inactive).

Regarding `FC(F)(F)c1nc(SCc2ccc(Cl)cc2Cl)n[nH]1`, the IC50 is 4.69 µM.

For `O=C(COC(=O)CCN1C(=O)/C(=C\C=C\c2ccccc2)SC1=S)Nc1cc(F)ccc1F`, the IC50 is 13.9 µM (inactive).

Turning to `O=C(CCNc1ccc(F)cc1)c1ccco1`, the IC50 is 6.12 µM.

For the molecule `COC(=O)C1=C(N)OC2=C(C(=O)CC(C)(C)C2)C1c1cccnc1` (centres undefined), the IC50 is 14.5 µM (inactive).

Consider `c1ccc(-c2ccccc2OCCCCn2ccnc2)cc1`, for which the IC50 is 33.5 µM (inactive).

`CCCN(Cc1nnc(-c2ccccc2Cl)o1)C(=O)c1cc([N+](=O)[O-])cc([N+](=O)[O-])c1`: the IC50 is 5.83 µM.

Regarding `Cc1ccccc1NCC(=O)N/N=C\c1ccc([N+](=O)[O-])s1`, the IC50 is 3.57 µM.

Take `CN(C)CCC(=O)N1c2ccccc2Sc2ccc(C(F)(F)F)cc21`: the IC50 was 17.9 µM (inactive).

`Cc1nn(-c2nc3ccccc3[nH]2)c(N)c1-c1ccc(Cl)cc1`: the IC50 is 4.88 µM.

For the molecule `COc1cc(/C=N/NC(=O)c2ccccn2)ccc1OC(=O)c1cccs1`, the IC50 is 2.85 µM.

Regarding `COc1ccc(CN=C(C#N)C2=C(O)c3ccccc3C2=O)cc1`, the IC50 is 8.56 µM.

On to `Cc1cc(N/N=C/c2ccccc2O)c2ccccc2n1`, for which the IC50 was 10.1 µM (inactive).

`CC1(C)CC(=O)C(C2NCCc3ccccc32)=C(O)C1` (centres undefined): the IC50 was 30.8 µM (inactive).

For `O=C(N/N=C/c1ccc([N+](=O)[O-])s1)c1cccc(Br)c1`, the IC50 was 4.95 µM.

With `O=C(N/N=C/C=C/c1ccccc1[N+](=O)[O-])c1ccncc1`, the IC50 is 1.23 µM.

For the molecule `O=C(Cc1ccc([N+](=O)[O-])cc1)N/N=C/c1ccc([N+](=O)[O-])o1`, the IC50 is 21.8 µM (inactive).

With `CCc1nnc(N/N=C/c2ccc(N3CCC(C)CC3)c([N+](=O)[O-])c2)n1N`, the IC50 was 3.83 µM.

Regarding `O=C(NCc1ccc(F)cc1)c1cnccn1`, the IC50 is 3.86 µM.

`CC(C)(C)c1ccc(NC(=O)COc2ccc(-n3ccnc3)cc2)cc1`: the IC50 was 30.2 µM (inactive).

As for `Cc1cccc2cc(C#N)c(NCCCn3ccnc3)nc12`, the IC50 was 23.3 µM (inactive).

Turning to `COc1ccc(C2=NOC(COC(=O)c3ccc4ccccc4n3)C2)cc1` (centres undefined), the IC50 is 5.43 µM.

As for `COc1ccc2nc(C)cc(N/N=C/c3ccccc3)c2c1`, the IC50 was 2.6 µM.

As to `Cc1ccc2c(C)ccc(O)c2n1`, the IC50 is 5.18 µM.

`C/C(=N\Nc1nc2ccccc2[nH]1)c1cc2ccccc2o1`: the IC50 is 8.88 µM.

Turning to `COc1c[nH]n(C2CCCCC2)c(=O)c1=O`, the IC50 was 8.76 µM.

For `Oc1c(Br)cc(Br)cc1/C=N/c1nccs1`, the IC50 is 21.2 µM (inactive).

Regarding `CC(C)[C@H]1CN=C2N(C[C@H](C)NC(=O)CCC3CCCCC3)[C@H](Cc3ccc(O)cc3)CN21`, the IC50 was 19.3 µM (inactive).

Turning to `Cc1ccc(N2NC(=O)/C(=C/C=C/c3ccco3)C2=O)cc1C`, the IC50 is 3.72 µM.

With `COC(=O)C1=C(C(=O)OC)C(c2cc(Cl)ccc2O)c2sc(=O)[nH]c2S1` (centres undefined), the IC50 is 34.9 µM (inactive).

As to `COCCn1c(C)cc(C(=O)COC(=O)c2ccc(Br)o2)c1C`, the IC50 is 43.8 µM (inactive).

Regarding `O=C(COc1ccccc1)NC1CCCCC1`, the IC50 was 0.61 µM.

In the case of `CC(C)OC(=O)c1c2c(n3ccccc13)C(=O)c1ccccc1C2=O`, the IC50 was 9.5 µM.

Consider `O=C(Nc1nnc(C2=COCCO2)o1)c1ccc(F)cc1`, for which the IC50 is 15.9 µM (inactive).

On to `COc1cc2ccccc2cc1C(=O)Nc1sc2c(c1C(N)=O)CCN(C(C)C)C2`, for which the IC50 is 19 µM (inactive).

As for `O=C(CCc1c[nH]c2ccccc12)Nc1ncccc1O`, the IC50 is 15.1 µM (inactive).

Turning to `CN1CC=C(/C=C/c2ccc(-c3ccccc3)cc2)CC1`, the IC50 is 11.4 µM (inactive).

On to `O=C(OCC(=O)N1CCCc2ccccc21)c1ccc(S(=O)(=O)C(F)F)cc1`, for which the IC50 was 20.5 µM (inactive).

As to `Cc1c(Cl)cccc1NC(=O)C(=O)NNC(=O)c1ccccc1F`, the IC50 is 1.59 µM.

Take `CCOC(=O)CCCNC(=O)COC(=O)c1cc(Br)c(Br)s1`: the 50% inhibitory concentration (IC50) was 9.34 µM.

On to `Cc1cccc(NCc2nnc(-c3ccccc3)o2)c1C`, for which the IC50 was 4.9 µM.

Consider `CN(C)c1ccc(NC(=O)COC(=O)c2cc(Cl)ccc2[N+](=O)[O-])cc1`, for which the IC50 was 8.95 µM.

Consider `Cc1ccc(/C=N/NC(=O)c2ccncc2)s1`, for which the IC50 is 1.43 µM.

Consider `Cc1ccc(-c2cc(C(F)(F)F)n3nc(C(=O)NCCCn4ccnc4)cc3n2)cc1C`, for which the IC50 was 14.1 µM (inactive).

As to `COc1ccc(OC(=O)C2CC(=O)N(c3ccc(C)cc3)C2)cc1` (centres undefined), the IC50 is 9.65 µM.

For `CCc1ccc(N2CCN(CCNC(=O)Nc3ccc(OC)cc3)CC2)cc1`, the IC50 was 17.7 µM (inactive).

For `CCCN(CCC)CCNC(=O)c1cc2c(-c3ccc(Cl)cc3)nn(C)c2s1`, the IC50 is 22.5 µM (inactive).

Consider `O=C(N/N=C\c1ccc([N+](=O)[O-])o1)c1cncc(Br)c1`, for which the IC50 is 8.55 µM.

Turning to `COc1cc(C(=O)N/N=C/c2cc([N+](=O)[O-])cs2)cc(OC)c1OC`, the IC50 is 3.58 µM.

For `CNCc1ccccc1Sc1cc(O)ccc1O`, the IC50 was 5.19 µM.

Turning to `CCOc1ccc(N2CC(=O)Nc3ccccc3NCC2=O)cc1`, the IC50 is 3.98 µM.

Turning to `COc1cc(/C=N/N(C)C)ccc1OC(=O)c1cccs1`, the IC50 was 8.4 µM.

As for `CCCc1cc(=O)n2[nH]c(C)c(-c3ccccc3)c2n1`, the IC50 is 11.4 µM (inactive).

`CC(C)NC(=O)C1COc2ccccc2O1` (centres undefined): the IC50 is 36.5 µM (inactive).

Turning to `COc1cccc2cc(-c3nc4ccccc4[nH]3)c(=O)oc12`, the IC50 is < 0.2 µM.

As to `Nc1ccc2c(c1)C(=O)C(=O)c1ccccc1-2`, the IC50 was 2.47 µM.

Consider `Cc1ccc(NC(=O)COc2ccc3c(c2)CCC3)nc1`, for which the IC50 is 6.66 µM.
